Where a name gives a salt, the structure may show the parent alone. Read-outs that look alike come from different tables or passages of the source.
Test: Rat oral pharmacokinetics (plasma eicosapentaenoic acid after oral gavage)
Type: in vivo
Conditions: Sprague-Dawley rats, oral gavage 40 mg/kg in 0.5% carboxymethyl cellulose, analyte EPA in plasma, mean of 6 rats
Protocol: Oral pharmacokinetic parameters of piperazine di-eicosapentaenoate, prepared by the procedure described in Example 2, were determined in Sprague-Dawley rats. Piperazine di-eicosapentaenoate was administered by oral gavage as an aqueous solution in 0.5% carboxymethyl cellulose to 6 Sprague-Dawley rats, 3 males and 3 females. Rats were dosed at 40 mg/kg. Blood samples were obtained from each rat by jugular vein catheter. […] Blood samples were centrifuged to separate red blood cells and the resulting plasma samples were analyzed for eicosapentaenoic acid. Calculated pharmacokinetic parameters shown below in Table 1 are mean values from 6 rats. […] Rats were dosed at 40 mg/kg. Blood samples were obtained from each rat by jugular vein catheter. […] Blood samples were centrifuged to separate red blood cells and the resulting plasma samples were analyzed for eicosapentaenoic acid. Calculated pharmacokinetic parameters shown below (Table 2) are mean values from 6 rats.

| SMILES | AUC(0-t) (both sexes, rat, 0-24 h) | Cmax (both sexes, rat, read-out: Cmax) | Tmax (both sexes, rat, read-out: Tmax) | AUC (0-24) (0-24 h) | Cmax | Tmax |
| --- | --- | --- | --- | --- | --- | --- |
| CC/C=C\C/C=C\C/C=C\C/C=C\C/C=C\CCCC(=O)O [Piperazine di-eicosapentaenoate, Bis[(5Z,8Z,11Z,14Z,17Z)-icosa-5,8,11,14,17-pentaenoatel Piperazine Salt] | 135 µg·h/mL | 28200 ng/mL | 1 h | – | – | – |
| CC/C=C\C/C=C\C/C=C\C/C=C\C/C=C\CCCC(=O)O.CC/C=C\C/C=C\C/C=C\C/C=C\C/C=C\CCCC(=O)O.NCCN [Ethylene diamine di-eicosapentaenoate, Ethane-1,2-diaminium di[(5Z,8Z,11Z,14Z,17Z)-icosa-5,8,11,14,17-pentaenoate]] | – | – | – | 275.29 µg·h/mL | 18370 ng/mL | 2.0 h |

Source: patent US20140148464A1, “SALT FORMS OF FATTY ACIDS FOR THE TREATMENT OF DRY EYE” (Thetis Pharmaceuticals LLC, priority 2012, published 2014)
